Data published in US4690891A, “Method and the microorganism and enzyme used therein for degrading the xanthan molecule” (Exxon Research and Engineering Company, priority 1985, dated 1987).
Like-named read-outs stand apart in the source and are kept apart here.

Experiments:
xanthan depolymerase [1] = assay: Substrate specificity of xanthan depolymerase; format: biochemical, Bacillus sp. (culture NRRL B-15992); settings: forty μg of enzyme per assay
Method: (§1) A novel xanthan depolymerase was purified from the culture supernatant and examined for its effect on degrading xanthan. In the following, enzyme assays were conducted with either viscosity or reducing sugar measurements by incubating a 1.25 ml xanthan stock solution and a small amount of enzyme(s) at 25° C. Xanthan stock solution was prepared by dissolving 0.188% xanthan, 0.4 mM MgSO4, and 0.03 mM MnSO4 in 0.05 M sodium acetate buffer pH 5.4. At certain time intervals samples were taken for either viscosity or reducing sugar assay. Viscosity was measured at 25° C. (using a Contraves low-shear 30 rheometer, Middlesex, U.K. at a shear rate of 1.3 sec.^-1 1). The rheometer was equipped with a refrigerated circulating bath (Neslab Endoccal bath, Portsmouth, N.H.). Reducing sugars, calculated as glucose, were determined by the method of Somogyi, M., (1945), "A New Reagent for the Determination of Sugars", J. Biol. Chem. 160, 61-69. […] The changes in viscosity and reducing sugars between two time intervals (1.0 min to 2.0 min for Δ cps, 0.5 min to 1.5 min for Δ reducing sugars) were measured. Enzyme activity (in units) was expressed as Δ cps/min (depolymerase) or Δμmoles reducing sugar group released (as glucose) per min. (for both endo and exoglucanases). Specific enzyme activity was expressed as units per mg of protein.

xanthan depolymerase [2] = assay: Inhibition of xanthan depolymerase activity, assayed viscosimetrically; format: biochemical, Bacillus sp. (culture NRRL B-15992)
Method: as §1
Various chemicals including thiols, metal ions and metal-chelating agents were tested for inhibition of xanthan depolymerase activity. These chemicals (at 1 mM concentration unless otherwise stated) were added into xanthan stock solutions. Enzyme activity was assayed viscosimetrically.

culture B-15992 [3] = assay: Effect of chemicals and biocide on growth of culture B-15992 in xanthan broth (viscosity loss); format: cell-based, Bacillus sp. / Flavobacterium sp. mixed culture NRRL B-15992
Method: Chemicals and biocides, including those used in enhanced oil recovery operations were studied for their effect on the growth of culture B-15992 and on the activity of xanthan-degrading enzyme(s). Both aerobic and anaerobic conditions were tested. In order to simulate the conditions used in EOR field operation, xanthan was produced in the laboratory by growing Xanthomonas campestris according to the published procedure, Jeanes, A., et al, (1976), "Polysaccharide (xanthan) of Xanthomonas campestris NRRL B-1459: Procedures for culture maintenance and polysaccharide production, purification and analysis". Agricultural Research Service, U.S. Department of Agriculture AR-NC-51. After centrifugation, the culture broth was autoclaved and was diluted with brine to about 300 cps viscosity. A cell suspension of culture B-15992 obtained from colonies grown on agar plates was used as the innoculum. Growth of B-15992 was followed by monitoring decreases of viscosity of the culture broth and by microscopic observation.

culture B-15992 [4] = test system: culture B-15992
Excerpt: The stable mixed culture is hereinafter designated NRRL B-15992.

Compound: OC[C@H]1O[C@@H](O[C@H]2[C@H](O)[C@@H](O)C(O)O[C@@H]2CO)[C@H](O)[C@@H](O)[C@@H]1O (single isomer, unassigned) [D(+) cellobiose]
- Enzyme Activity (μmoles reducing sugar/min) (xanthan depolymerase [1]): 0 μmoles reducing sugar/min

Compound: c1cnc2c(c1)ccc1cccnc12 [1,10-phenanthroline]
- % Inhibition (xanthan depolymerase [2]; inhibitor 1 mM): 0%

Compound: O=C(O)c1cc(SSc2ccc([N+](=O)[O-])c(C(=O)O)c2)ccc1[N+](=O)[O-] [5,5'-dithio-bis-2-n-nitrobenzoic acid]
- % Inhibition (xanthan depolymerase [2]; inhibitor 1 mM): 0%

Compound: Oc1cccc2cccnc12 [8-hydroxyquinoline]
- % Inhibition (xanthan depolymerase [2]): 0%

Compound: OC[C@H]1O[C@H](O[C@H]2O[C@H](CO)[C@@H](O)[C@H](O)[C@H]2O)[C@H](O)[C@@H](O)[C@@H]1O [D(+) trehalose]
- Enzyme Activity (μmoles reducing sugar/min) (xanthan depolymerase [1]): 0 μmoles reducing sugar/min

Compound: N#CC(Br)(Br)C(N)=O [DBNPA, 2,2-dibromo-3-nitrilopropionamide]
- prevention of growth of B-15992 (culture B-15992 [3]; 10 ppm): not effective in preventing the growth of B-15992
- time until solution viscosity was lost (culture B-15992 [3]; 10 ppm, aerobic): ≤ 5 days
- Viscosity (cps after days incubation) Aerobic (culture B-15992 [3]; 10 ppm, aerobic, 5 days): 1.5 cps
- Viscosity (cps after days incubation) Anaerobic (culture B-15992 [3]; 10 ppm): 300 cps

Compound: [Na+].[O-]c1cc(Cl)c(Cl)cc1Cl [Dowicide B, sodium trichlorophenate]
- inhibition of xanthan depolymerase activity (xanthan depolymerase [2]; 100 ppm): failed to inhibit

Compound: O=C(O)CN(CCN(CC(=O)O)CC(=O)O)CC(=O)O [EDTA]
- % Inhibition (xanthan depolymerase [2]): 0%

Compound: C=O [HCHO, formaldehyde]
- time for B-15992 to degrade the xanthan solution (culture B-15992 [3]; 25 ppm, aerobic): 9 days
- Viscosity (cps after days incubation) Aerobic (culture B-15992 [3]; 25 ppm, aerobic, 9 days, about 300 cps at start): 1.5 cps
- Viscosity (cps after days incubation) Anaerobic (culture B-15992 [3]; 25 ppm): 300 cps
- prevention of growth of B-15992 (culture B-15992 [3]; 25 ppm, compared with 10 ppm DBNPA): somewhat more effective
- Viscosity (cps after days incubation) Aerobic (culture B-15992 [3]; 50 ppm, aerobic): 300 cps
- Viscosity (cps after days incubation) Anaerobic (culture B-15992 [3]; 50 ppm): 300 cps
- changes in solution viscosity or cell growth (culture B-15992 [3]; 50 ppm, during 30 days of incubation): no changes in solution viscosity or cell growth
- inhibition of xanthan depolymerase activity (xanthan depolymerase [2]): not inhibited

Compound: [Cl-].[K+] [KCl]
- inhibition of xanthan depolymerase activity (xanthan depolymerase [2]; 1 mM): not inhibited

Compound: [K+].[OH-] [KOH]
- inhibition of xanthan depolymerase activity (xanthan depolymerase [2]; 5.0 mM (Trizma ph 8.5)): not inhibited

Compound: N#CSCSC#N [MBT 3522, methylene bisthiocyanate]
- inhibition of xanthan depolymerase activity (xanthan depolymerase [2]; 100 ppm): failed to inhibit

Compound: CCN1C(=O)C=CC1=O [N--ethylmaleimide]
- % Inhibition (xanthan depolymerase [2]; inhibitor 1 mM): 40%

Compound: O=S([O-])S(=O)[O-].[Na+].[Na+] [Na2 S2 O4, sodium dithionite]
- Viscosity (cps after days incubation) Aerobic (culture B-15992 [3]; 75 ppm, aerobic, xanthan broth about 300 cps at start): 1.0 cps
- Viscosity (cps after days incubation) Anaerobic (culture B-15992 [3]; 75 ppm, about 300 cps at start): 300 cps
- inhibition of xanthan depolymerase activity (xanthan depolymerase [2]; 0.2%): not inhibited
- inhibition of xanthan depolymerase activity (xanthan depolymerase [2]; 100 ppm): not inhibited

Compound: [Cl-].[Na+] [NaCl]
- inhibition of xanthan depolymerase activity (xanthan depolymerase [2]): not inhibited
- growth of culture B-15992 (culture B-15992 [4]; 10% salt concentration): completely inhibited
- growth of culture B-15992 (culture B-15992 [4]; salt concentration between 6-8%): somewhat slower
- growth of culture B-15992 (culture B-15992 [4]; up to 5% salt (NaCl) concentration): not inhibited

Compound: [Na+].[OH-] [NaOH]
- inhibition of xanthan depolymerase activity (xanthan depolymerase [2]; 5.0 mM (Trizma ph 8.5)): not inhibited

Compound: NC(CO)(CO)CO [Trizma]
- inhibition of xanthan depolymerase activity (xanthan depolymerase [2]): not inhibited

Compound: N.N.O=S(=O)(O)O [ammonium sulfate]
- inhibition of xanthan depolymerase activity (xanthan depolymerase [2]): not inhibited

Compound: Clc1ccccc1 [chlorobenzene]
- inhibition of xanthan depolymerase activity (xanthan depolymerase [2]; 100 ppm): not inhibited

Compound: ClC(Cl)Cl [chloroform]
- inhibition of xanthan depolymerase activity (xanthan depolymerase [2]): not inhibited

Compound: O=C(O)CC(O)(CC(=O)O)C(=O)O [citric acid]
- inhibition of xanthan depolymerase activity (xanthan depolymerase [2]; 5.5 mM): not inhibited

Compound: N#CC(Br)(Br)C(N)=O [dow Antimicrobial 7287, 2,2-dibromo-3-nitrilopropionamide]
- inhibition of xanthan depolymerase activity (xanthan depolymerase [2]; 100 ppm): failed to inhibit

Compound: [Cl][Fe]([Cl])[Cl] [ferric chloride]
- % Inhibition (xanthan depolymerase [2]): 100%
- inhibition of xanthan depolymerase activity (xanthan depolymerase [2]): inhibited strongly

Compound: c1c[nH]cn1 [imidazole]
- % Inhibition (xanthan depolymerase [2]): 30%

Compound: NC(=O)CI [iodoacetamide]
- % Inhibition (xanthan depolymerase [2]; inhibitor 1 mM): 0%

Compound: O=C(O)CI [iodoacetic acid]
- % Inhibition (xanthan depolymerase [2]): 0%

Compound: O=C(O)c1cc[c]([Hg+])cc1.[OH-] [p-hydroxymercuribenzoate]
- % Inhibition (xanthan depolymerase [2]; inhibitor 1 mM): 40%

Compound: [N-]=[N+]=[N-] [sodium azide]
- % Inhibition (xanthan depolymerase [2]; inhibitor 1 mM): 0%

Compound: OCl [sodium hypochlorite]
- inhibition of xanthan depolymerase activity (xanthan depolymerase [2]; 100 ppm): not inhibited

Compound: On1ccccc1=S [sodium omadine]
- inhibition of xanthan depolymerase activity (xanthan depolymerase [2]): failed to inhibit

Compound: NNC(N)=S [thiosemicarbazide]
- % Inhibition (xanthan depolymerase [2]; inhibitor 1 mM): 20%

Compound: NC(N)=S [thiourea]
- % Inhibition (xanthan depolymerase [2]; inhibitor 1 mM): 20%

Compound: c1ccc(-c2ccccn2)nc1 [α, α' bipyridyl]
- % Inhibition (xanthan depolymerase [2]; inhibitor 1 mM): 30%

Compound: O=C(CCl)c1ccc(O)c(O)c1 [α-chloro-3,4-dihydroxyacetophenone]
- inhibition of xanthan depolymerase activity (xanthan depolymerase [2]; 100 ppm): not inhibited

Compound: Triton X-100
- Viscosity (cps after days incubation) Aerobic (culture B-15992 [3]; 500 ppm, aerobic): 90 cps
- Viscosity (cps after days incubation) Anaerobic (culture B-15992 [3]; 500 ppm): 300 cps
- inhibition of xanthan depolymerase activity (xanthan depolymerase [2]; 4%): not inhibited

Compound: arsenomolybdate
- inhibition of xanthan depolymerase activity (xanthan depolymerase [2]; concentrations of Table VI): inhibited strongly
- % Inhibition (xanthan depolymerase [2]; inhibitor 4%): 100%

Compound: chlorophenol
- inhibition of xanthan depolymerase activity (xanthan depolymerase [2]; 100 ppm): not inhibited

Compound: ferrous sulfate
- inhibition of xanthan depolymerase activity (xanthan depolymerase [2]; 5.5 mM): not inhibited
